What follows are compounds tested on HEK293T viability, CellTiter-Glo ATP luminescence, 72 h (assay: ATP-based viability loss in HEK293T cells – cell-based, CellTiter-Glo luminescence, cherry-pick, set 3, cytotoxicity control, dose response (AID 720588);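 note: potency for luminescence loss meaning cytotoxic compounds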).

Row | Compound | AC35 [µM]
1 | C[C@H]1CN([C@@H](C)CO)S(=O)(=O)c2ccc(C#Cc3ccncc3)cc2O[C@@H]1CN(C)S(=O)(=O)c1ccccc1 | 12.3
2 | CN(C[C@H]1N[C@@H](CO)[C@@H]1c1ccc(C2=CCCC2)cc1)C(=O)c1cccc(F)c1 | 4.63
3 | C[C@@H]1CN([C@H](C)CO)C(=O)c2cc(C#CCN(C)C)cnc2O[C@H]1CN(C)Cc1ccc(-c2ccccc2)cc1 | 12.4
4 | O=C(c1nnsc1S(=O)c1ccc(Cl)cc1)N1CCOCC1 (stereo not drawn) | 5.6
5 | CCOC(=O)[C@]12Cc3ccc(C)cc3[C@H]1N(C1CCCCC1)C(=O)c1ccccc12 | 9.24
6 | COc1ccc(S(=O)(=O)N2CC[C@@H]3[C@@H](CO)Nc4ccc(-c5ccc(C#N)cc5)cc4[C@@H]32)cc1 | 16.5
7 | C[C@H](CO)N1C[C@H](C)[C@H](CN(C)Cc2ccc(Oc3ccccc3)cc2)Oc2ccc(NC(=O)Cn3cnnn3)cc2CC1=O | 15.5
8 | Cn1ccc2cc(-c3ccc4ncnc(NCc5cccs5)c4c3)ccc21 | 9.58
9 | CO[C@H]1CN(C)C(=O)c2cc(NC(=O)c3ccc(Oc4ccccc4)cc3)ccc2OC[C@H](C)NC[C@@H]1C | 14.5
10 | CCCCc1c(-c2ccccc2OC)ncn1Cc1ccc(C(C)(C)C)cc1 | 6.42
11 | O=C(NC1CCCC1)N1CCCCN2[C@@H](CO)[C@@H](c3ccc(/C=C/c4ccccc4)cc3)[C@@H]2C1 | 9.42
12 | COc1ccccc1NC(=O)N1CCCCN2[C@H](CO)[C@H](c3ccc(-c4cccc(C)c4)cc3)[C@H]2C1 | 10.4
13 | C[C@@H]1CCCCO[C@H](CN(C)Cc2ccc(C(=O)Nc3ccccc3N)cc2)[C@@H](C)CN([C@H](C)CO)C(=O)c2cc(NS(=O)(=O)c3ccc(F)cc3)ccc2O1 | 13.3
14 | c1ccc(Nc2nnc(-c3ccc4c(c3)OCO4)o2)cc1 | 3.33
15 | C[C@@H]1CN([C@H](C)CO)C(=O)c2cccc(N(C)C)c2O[C@@H]1CN(C)Cc1ccc(C(=O)Nc2ccccc2N)cc1 | 11.7
16 | COc1ccc(/C=C(/C(=O)c2cccs2)N2C=CC=CC2=C(C#N)C#N)cc1 | 6.97
17 | C[C@@H]1CN([C@@H](C)CO)S(=O)(=O)c2ccc(C#CC(C)(C)O)cc2O[C@H]1CN(C)Cc1ccc(-c2ccccc2)cc1 | 6.7

Row | Compound | AC35 [µM]
18 | N#C[C@@H]1[C@H](c2ccc(C#Cc3ccc(F)cc3)cc2)[C@@H](CO)N1C(=O)Nc1ccc(F)cc1 | 12.6
19 | O=C1c2ccccc2C(=O)c2cc(N3CCCCC3)ccc21 | 6.31
20 | BrC(=C\c1ccccc1)/C=N/n1cnnc1 | 17.8
21 | C[C@@H]1CN([C@@H](C)CO)C(=O)c2cc(NC(=O)Nc3ccccc3)ccc2O[C@@H]1CN(C)Cc1ccc(C(=O)Nc2ccccc2N)cc1 | 8.46
22 | C[C@@H]1O[C@@H](O[C@@H]2C=C3CCC4C(CC[C@]5(C)[C@@H](c6ccc(=O)oc6)CC[C@]45O)[C@@]3(C)CC2)[C@H](O)[C@H](O)[C@H]1O (stereo partly drawn) | 0.0201
23 | O=C(Nc1ccc(Br)cc1)c1ccc(F)c(S(=O)(=O)N2CCN(c3ccccn3)CC2)c1 | 8.36
24 | COc1ccc(Cn2cc3c(-c4ccc(F)cc4)nnc-3c3cc(OC)c(OC)cc32)cc1 | 10.2
25 | O=C(Nc1ccc2c(c1)OCO2)N1C[C@@H]2N[C@H](C1)C2c1ccc(C=Cc2ccccc2)cc1 (stereo partly drawn) | 9.59
26 | Oc1cccc(-c2nnc(-c3cccc(O)c3)nn2)c1 | 7.1
27 | CC1=NN(c2ccc(C)cc2)C(=O)/C1=C\C=C\c1ccccc1 | 14.3
28 | CC12CCC3C(CCC4(O)CC(O)CCC34C=NO)C1(O)CCC2C1=COC(=O)C1 (stereo not drawn) | 0.25
29 | Cc1cccc(/C=C(\c2nc3ccccc3[nH]2)S(=O)(=O)c2ccccc2)c1 | 8.44
30 | N#CC(C#N)=C1C=CC=CN1/C(=C\c1ccco1)C(=O)c1ccc(Cl)cc1 | 3.47
31 | Cc1nc(N)nc(N)c1/C=C/C(C)(C)c1ccc(Cl)cc1 | 0.0229
32 | C[C@@H]1CN([C@H](C)CO)C(=O)Cc2cc(NC(=O)CCCCCC(=O)Nc3ccccc3N)ccc2O[C@@H]1CN(C)CC1CCCCC1 | 20.1
33 | Cc1ccc(/C=N/Nc2ccnc3cc(Cl)ccc23)c(C)c1 | 10.6
